Several values for one entry are separate records, joined by “and”; a condition that tells them apart may be missing. Identical values can stand only once.
How the values were obtained:
Format in all cases: functional
[1] = test system: Enterococcus faecium; test: Antimicrobial activity against Enterococcus faecium A9650
[2] = test system: Enterococcus faecium; test: Antimicrobial activity against Enterococcus faecium A8948
[3] = test system: Enterococcus faecium; test: Antimicrobial activity against Enterococcus faecium A9621 by broth microdilution method
[4] = test system: Enterococcus faecium; test: Antimicrobial activity against Enterococcus faecium A8767
[5] = test system: Streptococcus pneumoniae; test: Antimicrobial activity against Streptococcus pneumoniae PU1071099 harboring 65WR66 deletion in ribosomal protein L4 by broth microdilution method
[6] = test system: Staphylococcus aureus; test: Antimicrobial activity against methicillin resistant Staphylococcus aureus 67-0
[7] = test system: Staphylococcus aureus; test: Antimicrobial activity against methicillin-resistant Staphylococcus aureus BK 11118
[8] = test system: Staphylococcus aureus; test: Antimicrobial activity against methicillin-resistant Staphylococcus aureus BK 11512
[9] = test system: Enterococcus faecalis; test: Antimicrobial activity against vancomycin-resistant Enterococcus faecalis 03B1069
[10] = test system: Streptococcus pneumoniae; test: Antimicrobial activity against Streptococcus pneumoniae 02J1258
[11] = test system: Streptococcus pneumoniae; test: Antimicrobial activity against Streptococcus pneumoniae 02J1175
[12] = test system: Haemophilus influenzae; test: Antimicrobial activity against Haemophilus influenzae 54A1100
[13] = test system: Haemophilus influenzae; test: Antimicrobial activity against Haemophilus influenzae A1950
[14] = test system: Staphylococcus aureus; test: Antimicrobial activity against Staphylococcus aureus A7820
[15] = test system: Enterococcus faecium; test: Antimicrobial activity against Enterococcus faecium A6349
[16] = test system: Streptococcus pneumoniae; test: Antimicrobial activity against Streptococcus pneumoniae 02J1258 assessed as log reduction in bacterial growth at 4 times MIC after 24 hrs by time-kill assay
[17] = test system: Streptococcus pneumoniae; test: Antimicrobial activity against Streptococcus pneumoniae 02J1175 assessed as log reduction in bacterial growth at 4 times MIC after 24 hrs by time-kill assay
[18] = test system: Haemophilus influenzae; test: Antimicrobial activity against Haemophilus influenzae 54A1100 assessed as log reduction in bacterial growth at 4 times MIC after 24 hrs by time-kill assay
[19] = test system: Haemophilus influenzae; test: Antimicrobial activity against Haemophilus influenzae 54A1100 assessed as log reduction in bacterial growth at 8 times MIC after 24 hrs by time-kill assay
[20] = test system: Streptococcus pneumoniae; test: Antimicrobial activity against Streptococcus pneumoniae 02J1258 assessed as log reduction in bacterial growth at 8 times MIC after 24 hrs by time-kill assay
[21] = test system: Streptococcus pneumoniae; test: Antimicrobial activity against Streptococcus pneumoniae 02J1175 assessed as log reduction in bacterial growth at 8 times MIC after 24 hrs by time-kill assay
[22] = test system: Haemophilus influenzae; test: Antimicrobial activity against Haemophilus influenzae A1950 assessed as log reduction in bacterial growth at 4 times MIC after 24 hrs by time-kill assay
[23] = test system: Haemophilus influenzae; test: Antimicrobial activity against Haemophilus influenzae A1950 assessed as log reduction in bacterial growth at 8 times MIC after 24 hrs by time-kill assay
[24] = test system: Staphylococcus aureus; test: Antimicrobial activity against methicillin-susceptible Staphylococcus aureus nosocomial isolate
[25] = test system: Enterococcus faecalis; test: Antimicrobial activity against vancomycin-resistant Enterococcus faecalis nosocomial isolate
[26] = test system: Streptococcus pneumoniae; test: Antimicrobial activity against Streptococcus pneumoniae harboring erm(B) gene by broth microdilution method
[27] = test system: Streptococcus pneumoniae; test: Antimicrobial activity against Streptococcus pneumoniae harboring erm(B) and mef(A) gene
[28] = test system: Streptococcus pneumoniae; test: Antimicrobial activity against Streptococcus pneumoniae ribosomal mutant
[29] = test system: Streptococcus pyogenes; test: Antimicrobial activity against Streptococcus pyogenes
[30] = test system: Moraxella catarrhalis; test: Antimicrobial activity against Moraxella catarrhalis
[31] = test system: Staphylococcus aureus; test: Antimicrobial activity against Staphylococcus aureus ATCC 29213
[32] = test system: Staphylococcus aureus; test: Antimicrobial activity against Staphylococcus aureus A7819 harboring G2576U mutation in 23S rRNA
[33] = test system: Staphylococcus aureus; test: Antimicrobial activity against Staphylococcus aureus A8833 harboring U2500A mutation in 23S rRNA
[34] = test system: Staphylococcus aureus; test: Antimicrobial activity against Staphylococcus aureus A8831 harboring U2500A mutation in 23S rRNA
[35] = test system: Staphylococcus aureus; test: Antimicrobial activity against Staphylococcus aureus A7817
[36] = test system: Staphylococcus aureus; test: Antimicrobial activity against Staphylococcus aureus A8761
[37] = test system: Staphylococcus aureus; test: Antimicrobial activity against Staphylococcus aureus A8727
[38] = test system: Staphylococcus hominis; test: Antimicrobial activity against Staphylococcus hominis A7828
[39] = test system: Staphylococcus epidermidis; test: Antimicrobial activity against Staphylococcus epidermidis A8934
[40] = test system: Staphylococcus capitis; test: Antimicrobial activity against Staphylococcus capitis A8935
[41] = test system: Staphylococcus aureus; test: Antimicrobial activity against Staphylococcus aureus pL150
[42] = test system: Staphylococcus aureus; test: Antimicrobial activity against Staphylococcus aureus pLXM1 harboring cfr gene
[43] = test system: Enterococcus faecalis; test: Antimicrobial activity against Enterococcus faecalis ATCC 29212
[44] = test system: Enterococcus faecalis; test: Antimicrobial activity against Enterococcus faecalis ATCC 29212-P5 harboring G2576U mutation in 23S rRNA
[45] = test system: Enterococcus faecalis; test: Antimicrobial activity against Enterococcus faecalis A6350
[46] = test system: Enterococcus faecalis; test: Antimicrobial activity against Enterococcus faecalis A6343
[47] = test system: Enterococcus faecalis; test: Antimicrobial activity against Enterococcus faecalis A5962
[48] = test system: Enterococcus faecalis; test: Antimicrobial activity against Enterococcus faecalis A7789
[49] = test system: Enterococcus faecium; test: Antimicrobial activity against Enterococcus faecium A5959
[50] = test system: Enterococcus faecium; test: Antimicrobial activity against Enterococcus faecium A5960
[51] = test system: Enterococcus faecium; test: Antimicrobial activity against Enterococcus faecium A6345
[52] = test system: Enterococcus faecium; test: Antimicrobial activity against Enterococcus faecium A6348 harboring G2576U mutation in 23S rRNA
[53] = test system: Enterococcus faecium; test: Antimicrobial activity against Enterococcus faecium A6349 harboring G2576U mutation in 23S rRNA
[54] = test system: Enterococcus faecium; test: Antimicrobial activity against Enterococcus faecium A8130
[55] = test system: Haemophilus influenzae; test: Antimicrobial activity against Haemophilus influenzae
[56] = Streptococcus pneumoniae, read-out: MIC

CC(=O)NC[C@H]1CN(c2ccc(-c3ccc(CNCCCF)cc3)c(F)c2)C(=O)O1
0.25 mg/L: MIC [10] | MIC [29]
≤ 0.25 mg/L: MIC ([25]; Enterococcus faecalis, read-out: MIC) | MIC [26, 56] | MIC [27] | MIC [28]
2 mg/L: MIC [4] | MIC [8] | MIC [12] | MIC [30] | MIC [31] | MIC [44] | MIC [46] | MIC [54]
>3: FC [16] | FC [17] | FC [18] | FC [19] | FC [20] | FC [21] | FC [22] | FC [23]
1 mg/L: MIC [1] | MIC [6] | MIC [7] | MIC [15] | MIC [24] | MIC ([30]; Moraxella catarrhalis, read-out: MIC) | MIC [40] | MIC [42] | MIC [43] | MIC [45] | MIC [53]
8 mg/L: MIC [36]
16 mg/L: MIC [14] | MIC [32] | MIC [35]
4 mg/L: MIC [3] | MIC [13] | MIC [37] | MIC [38] | MIC [39] | MIC [47] | MIC [48] | MIC [49] | MIC [50] | MIC [51] | MIC [52]
0.125 mg/L: MIC [11] | MIC ([29]; Streptococcus pyogenes, read-out: MIC)
32 mg/L: MIC [33]
64 mg/L: MIC [34]
0.5 mg/L: MIC [2] | MIC [5] | MIC [9] | MIC ([24]; Staphylococcus aureus, read-out: MIC) | MIC [25] | MIC [41]

CC[C@H]1OC(=O)[C@H](C)[C@@H](O[C@H]2C[C@@](C)(OC)[C@@H](O)[C@H](C)O2)[C@H](C)[C@@H](O[C@@H]2O[C@H](C)C[C@H](N(C)C)[C@H]2O)[C@](C)(O)C[C@@H](C)CN(C)[C@H](C)[C@@H](O)[C@]1(C)O [AZITHROMYCIN]
0.25 mg/L: MIC [41]
2 mg/L: MIC [32] | MIC [51]
8 mg/L: MIC [43] | MIC [44] | MIC [49]
16 mg/L: MIC [3] | MIC [37]
0.5 mg/L: MIC [42]
0.03 mg/L and 0.06 mg/L: MIC [29]
32 mg/L: MIC [11]
1 mg/L: MIC [12] | MIC [31] | MIC [35]
> 128 mg/L: MIC [1] | MIC [2] | MIC [4] | MIC [6] | MIC [7] | MIC [8] | MIC [9] | MIC [10] | MIC [14] | MIC [15] | MIC [26, 56] | MIC [33] | MIC [34] | MIC [36] | MIC [38] | MIC [39] | MIC [46] | MIC [47] | MIC [48] | MIC [50] | MIC [52]
64 mg/L: MIC [40]
4 mg/L: MIC [5] | MIC [13] | MIC [45] | MIC [54]

CCC[C@@H]1C[C@@H](C(=O)N[C@@H]([C@H]2O[C@H](SC)[C@H](O)[C@@H](O)[C@H]2O)[C@H](C)Cl)N(C)C1 [CLINDAMYCIN]
>128 mg/L: MIC [26]
> 64 mg/L: MIC [26, 56]

C[C@H]1COc2c(N3CCN(C)CC3)c(F)cc3c(=O)c(C(=O)O)cn1c23.C[C@H]1COc2c(N3CCN(C)CC3)c(F)cc3c(=O)c(C(=O)O)cn1c23.O [LEVOFLOXACIN]
0.008 mg/L: MIC ([55]; Haemophilus influenzae, read-out: MIC)
0.016 mg/L: MIC [55]
